Test results reported in US4220577A, “Iodopropargyl pyridyl and picolinyl ethers and thioethers as paint fungicides” (Givaudan Corporation, priority 1979, dated 1980).

Legend:
Format in all cases: cell-based
[1] = test system: Aureobasidium pullulans (strain 1); experiment: Antifungal activity on painted surfaces, strain 1; parameters: key to Surface Growth: 0: No growth; 1: Slight growth; 2: Moderate growth; 3: Heavy growth; conditions: Strain 1, three weeks
Procedure: (§1) Any antifungal agent which can be used to prevent mildew on painted surfaces must be effective against Aureobasidium pullulans, the organism which is primarily responsible for mildew on painted surfaces. The effectiveness of the novel compounds was tested by incorporating the compound into an exterior latex paint, applying the paint to a surface, and testing the ability of the painted surface to prevent the growth of Aureobasidium pullulans. The tests were run as described below. The novel compounds were incorporated into an exterior vinyl acetate latex paint by mulling the compound into the paint. The compounds were tested in the paints at levels of 0.25% and 0.5%. One coat of this paint was applied to each side of a piece of Whatman #30 filter paper. Two one-inch squares were cut from the filter paper. Each square was centered on the agar surface of separate Petri dishes containing malt agar. One square was inoculated with a suspension of Aureobasidium pullulans (strain 1) which was an in-house strain used for routine antimicrobial testing. The second square was inoculated with a suspension of Aureobasidium pullulans (strain 2) which was grown from a culture obtained from the surface of a mildew infested panel. Squares painted with the same exterior vinyl acetate latex paint, but without the novel compounds of this invention, were run in parallel. The Petri dishes were then incubated at 27° C. and at greater than 90% humidity for a three week period and observed for zones of inhibition and surface growth.

[2] = test system: Aureobasidium pullulans (strain 2); experiment: Antifungal activity on painted surfaces, strain 2; parameters: key to Surface Growth: 0: No growth; 1: Slight growth; 2: Moderate growth; 3: Heavy growth; key to Zone of Inhibition: 0: no zone; 1-5 mm; 2: 6-10 mm; 3: 11-15 mm; 4: 16-20 mm; 5: >20 mm; conditions: Strain 2, three weeks
Procedure: as §1

[3] = test system: Aureobasidium pullulans (strain 2); experiment: Antifungal activity of painted birch blades after exposure to heat and light; parameters: key to Surface Growth: 0: No growth; 1: Slight growth; 2: Moderate growth; 3: Heavy growth; conditions: after light (300-400 nm) and heat (40° C.) four weeks
Procedure: Successful paint fungicides must be stable when exposed to the elements such as heat and light. Such stability was tested in the laboratory by exposing painted sticks to heat and light. The compounds of this invention were incorporated into an exterior vinyl acetate latex paint as described in Example XXI. Birch blades (tongue depressors) were painted (two coats) and continuously exposed to light (wavelength 300-400 nm) and heat (40° C.) for four consecutive weeks. At the end of the exposure time, one-inch squares of the painted birch blades were cut and tested according to the procedure of Example XXI, using strain 2.

[4] = 0.25% in vinyl acetate latex paint
[5] = 0.5% in vinyl acetate latex paint

In the case of Nc1ncccc1OCC#CI [drawing 14], the “Surface Growth” value [1, 4] is reported as 0, the “Surface Growth” value [1, 5] is reported as 0 and the “Zone of Inhibition” value [1, 5] is reported as 2 (6-10 mm). For the same compound, the “Surface Growth” value [2, 4] was 0, the “Zone of Inhibition” value [2, 4] was 0 and the “Surface Growth” value [2, 5] was 0. For the same compound, the “Zone of Inhibition” value [2, 5] was 0.

With IC#CCSc1cccnc1 [drawing 15] the “Surface Growth” value [1, 4] was 0, the “Zone of Inhibition” value [1, 4] was 2 (6-10 mm) and the “Surface Growth” value [1, 5] was 0. The “Zone of Inhibition” value [1, 5] was 3 (11-15 mm), the “Surface Growth” value [2, 4] was 0 and the “Zone of Inhibition” value [2, 4] was 0. For the same compound, the “Surface Growth” value [2, 5] was 0 and the “Zone of Inhibition” value [2, 5] was 2 (6-10 mm).

In the case of IC#CCOCc1cccnc1 [drawing 16], the “Surface Growth” value [1, 4] is reported as 0, the “Zone of Inhibition” value [1, 4] is reported as 4 (16-20 mm) and the “Surface Growth” value [1, 5] is reported as 0. For the same compound, the “Zone of Inhibition” value [1, 5] was 5 (>20 mm), the “Surface Growth” value [2, 4] was 0 and the “Zone of Inhibition” value [2, 4] was 3 (11-15 mm). The “Surface Growth” value [2, 5] was 0 and the “Zone of Inhibition” value [2, 5] was 4 (16-20 mm).

In the case of IC#CCOc1ccncc1 [drawing 17], the “Surface Growth” value [1, 5] is reported as 0, the “Zone of Inhibition” value [1, 5] is reported as 2 (6-10 mm) and the “Surface Growth” value [2, 5] is reported as 0. The “Zone of Inhibition” value [2, 5] was 1 (1-5 mm).

In the case of IC#CCSc1ccncc1 [drawing 18], the “Surface Growth” value [1, 4] is reported as 0, the “Surface Growth” value [1, 5] is reported as 0 and the “Zone of Inhibition” value [1, 5] is reported as 1 (1-5 mm). For the same compound, the “Surface Growth” value [2, 4] was 0, the “Zone of Inhibition” value [2, 4] was 0 and the “Surface Growth” value [2, 5] was 0. For the same compound, the “Zone of Inhibition” value [2, 5] was 0.

In the case of IC#CCOc1cccnc1 [drawing 19], the “Surface Growth” value ([3]; 0.25%) is reported as 0, the “Surface Growth” value ([3]; 0.5%) is reported as 0 and the “Zone of Inhibition” value ([3]; 0.5%) is reported as 1 (1-5 mm).

Cc1ccc(OCC#CI)cn1 [drawing 20] was tested, and the “Surface Growth” value ([3]; 0.25%) was 0.

For Clc1ncccc1OCC#CI [drawing 21], the “Surface Growth” value ([3]; 0.25%) was 0.

In the case of Cc1ccc(OCC#CI)c(Cl)n1 [drawing 22], the “Surface Growth” value ([3]; 0.5%) is reported as 0.

With Nc1ncccc1OCC#CI [drawing 23] the “Surface Growth” value ([3]; 0.25%) was 1 and the “Surface Growth” value ([3]; 0.5%) was 0.

For IC#CCSc1cccnc1 [drawing 24], the “Surface Growth” value ([3]; 0.25%) was 3 and the “Surface Growth” value ([3]; 0.5%) was 2.

With IC#CCOCc1cccnc1 [drawing 25] the “Surface Growth” value ([3]; 0.25%) was 0, the “Surface Growth” value ([3]; 0.5%) was 0 and the “Zone of Inhibition” value ([3]; 0.5%) was 1 (1-5 mm).

IC#CCOc1ccncc1 [drawing 26] was tested, and the “Surface Growth” value ([3]; 0.25%) was 2 and the “Surface Growth” value ([3]; 0.5%) was 2.

In the case of IC#CCOc1ccccc1 [reference compound], the “Surface Growth” value ([3]; 0.25%) is reported as 3 and the “Surface Growth” value ([3]; 0.5%) is reported as 2.
